Here are results for 2 compounds from patent US10522239B2, “Small molecule binding pockets in nucleic acids” (Nymirum, Inc., priority 2012, dated 2019).

For this assay, the target named is pre-miR-122 loop. Put plainly: NMR titration binding screen against pre-miR-122 loop. Also on record: species or system human. The conditions noted are these: NMR titration experiments. The source says:
The apical loop sequence of human pre-miR 122 RNA sequence was investigated as an example. Two base pairs at the 5′- and 3′-ends of the sequence were modified from the native pre-miR 122 sequence in order to stabilize the 24-mer stem loop construct for NMR studies (5′-[…]-3′) (SEQ ID NO: 2).
Because pre-miR-122 is cleaved near the helix-apical loop interface, the apical loop was targeted to identify binding pockets. […] Given the size and plasticity of the loop, it was hypothesized that the loop could assume different conformations to bind small molecules. To identify small molecule binding pockets, each of the 60 small molecules in Nymirum's small molecule library was screened against the pre-miR-122 loop using NMR titration experiments. Two small molecules, NC1404 (9-aminoacridine) and NC1444 (L-arg-p-nitroanilide), were identified to bind with Kds of 71.7±9.0 μM and 17.6±3.25 μM respectively (FIGS. 12A and 12B). Using the same procedure detailed for A-site, bound-state chemical shifts for NC1404 and NC1444 were measured, used to solve a bound-state pre-miR-122 structure and a binding pocket for each compound was identified (FIGS. 12A and 12B). […]

As for `Nc1c2ccccc2nc2ccccc12` [NC1404, 9-aminoacridine], the Kd stood at 71.7 ± 9 µM.

For the compound `N=C(N)NCCC[C@H](N)C(=O)Nc1ccc([N+](=O)[O-])cc1` [NC1444, L-arg-p-nitroanilide], the Kd was 17.6 ± 3.25 µM.
